Consider 2 compounds from US20070059720A9 (priority 2004, published 2007).

In assay [1] the test system is ERα. The assay can be described thus: Immunoblot of ERα in T47D vector and MTA2 clones. Format: cell-based, human.
The test system of a further assay is PR-B. The assay can be described thus: PR ubiquitin assay. The note with it: 2 hrs in the presence of a proteasomal inhibitor. The assay is classed as cell-based, human. How it is done: Cells were staved in PRF MEM for 24 hours, and then 2×10^6 cells were seeded into 100 mm tissue culture plates, and incubated for another 24 hours. Cells were transiently transfected with Fugene 6 reagent (Roche, Indianapolis, Ind.) following the manufacturer's protocol. Each plate was transfected with 1 μg pcDNA 3.1-PR-B (subcloned by BamHI digestion from pSG5-human PR-B clone (Richer et al., 1998) obtained from Dr. Kathryn Horwitz, University of Colorado Health Sciences Center, 1 μg MKP3-V5, and 3 μg pcDNA-HAUbiquitin (kindly provided by Dr. Xinhua Feng, Baylor College of Medicine). Twenty-four hours later, cells were switched to serum free, PRF MEM, incubated for another 24 hours. In some experiments were pretreated with the 50 μM MG-132 (Calbiochem, LaJolla, Calif.) for 2 hours, and then treated with vehicle (ethanol), estradiol (E2, 100 nM), or 4-OH-Tam (100 nM) for an additional 2 hours. Cells were then harvested in 1 ml cell lysis buffer supplemented with 50 μM MG-132. Cell lysates from each treatment were precleared with the addition of 50 μl 50% protein A slurry (Amersham), and immunoprecipitated with the addition of anti-PR antibodies C-19 and H190 (2 μg each), and 20 μl 50% protein A slurry. […]

For assay [2], the system named is ERα. In words: Transient transactivation assay with ERE-luciferase reporter. Format: cell-based. The settings on record: U20S cells with exogenous ER or MCF-7 cells with endogenous ER; EBP50 expression. The source says:
Transient transactivation assays with an ERE-luciferase reporter were utilized in U20S cells expressing exogenous ER (Panel A), or MCF-7 cells expressing endogenous ER (Panel B). ER activity was enhanced with EBP50 expression in the presence of estrogen.

Turning to `C[C@]12CC[C@@H]3c4ccc(O)cc4CC[C@H]3[C@@H]1CC[C@@H]2O` [E2, 17β-Estradiol], the ERα protein levels result with ERα [1] is reported as “decreased”.
Regarding `CC/C(=C(\c1ccccc1)c1ccc(OCCN(C)C)cc1)c1ccccc1` [Tam, tamoxifen], in the assay on PR-B, the “level of polyubiquitin-conjugated PR-B” value is reported as “increased”. In addition, in the assay on ERα [2], the “effect on ER activity (ERE-luciferase)” value is “antagonist and reversed estrogen's effects”.
